Source: patent US20130267494A1, “1,4-OXAZEPANE DERIVATIVES” (priority 2010, published 2013)
Structures can show the parent of a compound that is named as a salt.

Assays:
[1] = biological target: T1, human norepinephrine transporter (Homo sapiens, UniProt P23975); test: Inhibitory action on human norepinephrine transporter ([3H]-norepinephrine uptake in CHO cells); format: cell-based; details: CHO, compound 1 μM; relative to inhibitory activity of 10 μM DMI as 100%; read-out: inhibitory rate (%)
T1 construct: expressed in transfected cells
Method in brief: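 Stably transfected CHO-K1 cells plated overnight, then given test compound and [3H]-norepinephrine (20 nM final, from 200 nM) in HEPES-buffered saline with 0.5% BSA for 45 min. After PBS washes, retained radioactivity counted by scintillation. Inhibition at 10 μM or 1 μM compound expressed relative to 10 μM DMI as 100%.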

[2] = tested on: SD female rats; test: Measurement of urethral resistance increasing effect (leak point pressure, oral administration); format: in vivo, rat
Experimental: The urethral resistance increasing effect in rat was measured by a modified method of Matsumoto et al. (WO2009/063992) as follows. That is, SD female rats (CLEA Japan, Inc.) were anesthetized with isoflurane (1.0%; Abbott), and the spinal cord was transected at Th8-9 to avoid the voiding reflex. After laparotomy, an intravesical pressure measurement catheter and a saline infusion catheter (PE-100; Clay Adams) were inserted into the bladder. Thereafter, the abdomen of the rat was closed with aronalpha A “Sankyo” (Daiichi Sankyo). The rat with an inserted catheter was placed in a Bollman cage (KN-326 Bollman cage TYPE III; Natsume). The intravesical pressure measurement catheter was connected to a computer via a pressure transducer (DX-100; Nihon Koden), an amplifier (RPM-6008M; Nihon Koden/303638; SAN-EI), and a multi-channel data analyzer (MP150/MP100; Biopack), and changes in the intravesical pressure were recorded on a hard disc at a frequency of 100 samples/sec. The saline infusion catheter was connected to a 50 mL syringe (Terumo) filled with saline colored with Evans Blue (Wako). The saline was infused into the bladder from the 50 mL syringe filled with saline at a rate of 0.1 mL/sec by using an infusion pump (Kds100; KD Scientific). When the saline leaked from the urethral orifice, infusion was discontinued, and the saline in the bladder was released. The maximum pressure observed during infusion of saline into the bladder and leakage thereof was taken as an LPP (Leak point pressure) value. The measurement was repeated until the LPP value was stabilized, and an average of continuous three stable LPP values was taken as the result. In addition, the measurement of drug effect was started 1 hr after the animal was placed in the Bollman cage. The LPP value (Pre value) was measured, a drug was orally administered, and the measurement of LPP value (Post value) was again started 15 min, 30 min, 1 hr, 2 hr and 4 hr after administration. The urethral resistance increasing effect by the drug was shown by the difference between the LPP value (Post value) and LPP value (Pre value). The drug was orally administered at 2.0 mL/kg, using 0.5% methylcellulose as a vehicle. For detection of a significant difference in the urethral resistance increasing effect by the drug as compared to the vehicle, the following method was used. For comparison of 3 or more groups, the Williams' test was used for a parametric test, and the Shirley-Williams' test was used for a non-parametric test. For comparison of 2 groups, the Student's t-test was used for a parametric test, and the […] was used for a non-parametric test.

T1 sequence (P23975 whole entry): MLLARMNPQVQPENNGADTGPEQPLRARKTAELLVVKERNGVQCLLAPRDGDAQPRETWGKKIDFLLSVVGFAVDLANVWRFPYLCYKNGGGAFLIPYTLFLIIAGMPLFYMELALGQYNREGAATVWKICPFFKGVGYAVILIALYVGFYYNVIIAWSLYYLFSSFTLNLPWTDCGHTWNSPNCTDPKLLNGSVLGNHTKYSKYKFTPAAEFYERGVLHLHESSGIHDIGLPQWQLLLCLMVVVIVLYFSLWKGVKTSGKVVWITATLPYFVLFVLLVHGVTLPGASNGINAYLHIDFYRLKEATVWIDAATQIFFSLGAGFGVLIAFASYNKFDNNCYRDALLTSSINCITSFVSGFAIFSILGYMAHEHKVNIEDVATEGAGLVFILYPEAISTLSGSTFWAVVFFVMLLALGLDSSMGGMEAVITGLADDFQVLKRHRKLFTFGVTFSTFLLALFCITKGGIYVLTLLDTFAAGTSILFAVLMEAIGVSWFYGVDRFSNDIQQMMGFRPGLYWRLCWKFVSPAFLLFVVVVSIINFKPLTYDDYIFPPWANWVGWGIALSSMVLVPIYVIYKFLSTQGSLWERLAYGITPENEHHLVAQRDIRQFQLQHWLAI

| inhibition at 1 µM [1] [%] | Structure (SMILES) | urethral resistance increasing effect (cmH2O) ([2]; 3.0 mg/kg oral, 15 min later) | urethral resistance increasing effect (cmH2O) ([2]; 3.0 mg/kg oral, 30 min later) | urethral resistance increasing effect (cmH2O) ([2]; 10.0 mg/kg oral, 15 min later) | urethral resistance increasing effect (cmH2O) ([2]; 10.0 mg/kg oral, 30 min later) |
| --- | --- | --- | --- | --- | --- |
| 97 | O=c1[nH]c(-c2ccccc2O[C@@H]2CNCCO[C@H]2c2ccc(Cl)c(F)c2)no1 [Example 577, 3-(2-{[(6R, 7S)-7-(4-chloro-3-fluoro-phenyl)-1,4-oxazepan-6-yl]oxy}phenyl)-1,2,4-oxadiazol-5(4H)-one] | 14.3 ± 3.0 | 13.1 ± 3.1 | 18.7 ± 1.8 | 15.4 ± 1.5 |
| 101 | CC(C)OCC(=O)NC[C@@H]1CNCCO[C@H]1c1ccc(Cl)c(F)c1 [Example 41, N-{[(6S,7R)-7-(4-chloro-3-fluorophenyl)-1,4-oxazepan-6-yl]methyl}-2-(1-methylethoxy)acetamide monohydrochloride] | 9.8 ± 3.8 | 9.6 ± 2.3 | 17.8 ± 1.6 | 16.1 ± 1.5 |
